# Test system: promoter of yeast gene YKL071w
# Assay: Dissolved oxygen measurement with oxygen electrode using yeast transformed with YKL071w promoter linked to oxidase (pyridoxamine phosphate substrate)
# Assay type: cell-based, Saccharomyces cerevisiae W303
# Settings: sample solutions A, B, C with 0.0053, 0.053, 0.53 ppm versus standard solution S; FIG. 4
# Protocol: Primers for PCR to amplify the polynucleotide comprising the promoter of yeast gene YKL071w were prepared. Primers were designed using a primer design software, Oligo4.0-S, Sequencher I Mackintosh version. The base sequence of the upper primer was:
# For PCR, yeast chromosome (Saccharomyces cerevisiae S288C, Cat.40802, Research Genetics, Inc.) was used as template, and the commercially available kit (KOD DNA Polymerase; Code KOD-101, Toyobo) was used as reagents. […]
# The yeast in a steady state is diluted 500 times with the SD medium, and it is shake cultured at 25° C. for 15 hours. After confirming the logarithmic growth phase at which absorbance at 600 nm is within 0.2 to 0.5, different concentrations of TPN is loaded. […]
# By comparing a temporal change in a measured current value for the sample solution A, B or C and a temporal change in a measured current value for the standard solution S, an amount of pyridoxamine phosphate oxidase produced by stimulation of the chemical substance (TPN) in respective solutions for measurement may be determined and, thereby, existence or a quantity of the chemical substance may be detected.
compound,measurement,value
"N#Cc1c(Cl)c(Cl)c(Cl)c(C#N)c1Cl [(9), 2,4,5,6-Tetrachloro-1,3-benzenedicarbonitrile]",Temporal change in current value for dissolved oxygen measurement,"as the concentration of the chemical substance (TPN) becomes larger, a decreasing rate of a current value at an initial stage becomes larger and a steady state value after reaching a plateau becomes lower"

# Reference: patent US20100041089A1, “IMPROVED METHOD FOR DETECTING CHEMICAL […]” (priority 2006, published 2010)
